Measurements taken from patent US20060052435A1, “Selective dopamin d3 receptor agonists for the treatment of sexual dysfunction” (priority 2001, published 2006).

Tests used:
[1] = test system: telemetry rats; assay: rat telemetry model of erection (intracavernosal pressure); type: in vivo
Procedure: Erectile responses were recorded by measuring intracavernosal pressure and/or clitoral/vaginal blood flow using surgically implanted telemetric device. The specific details of the surgical procedures, data acquisition and analysis can be found in detail in Bernabe J, Rampin O, Sachs B D, Giuliano F. Intracavernous pressure during erection in rats: an integrative approach based on telemetric recording. Am. J. Physiol.

[2] = test system: New Zealand rabbits; assay: male and female anaesthetised rabbit, pelvic nerve stimulation; type: in vivo
Procedure: 1.1.1 Male and Female Anaesthetised Rabbit Methodology
Male and female New Zealand rabbits (˜2.5 kg) were pre-medicated with a combination of Medetomidine (Domitor®) 0.5 ml/kg i.m., and Ketamine (Vetalar®) 0.25 ml/kg i.m. whilst maintaining oxygen intake via a face mask. The rabbits were tracheotomised using a Portex™ uncuffed endotracheal tube 3 ID., connected to ventilator and maintained at a ventilation rate of 30-40 breaths per minute, with an approximate tidal volume of 18-20 ml, and a maximum airway pressure of 10 cm H2O. Anaesthesia was then switched to Isoflurane and ventilation continued with O2 at 2 l/min. The right marginal ear vein was cannulated using a 23 G or 24 G catheter, and Lactated Ringer solution perfused at 0.5 ml/min. The rabbit was maintained at 3% Isoflurane during invasive surgery, dropping to 2% for maintenance anaesthesia. The left jugular vein was exposed, isolated and then cannulated with a PVC catheter (17 G) for the infusion of drugs and compounds.
The left groin area of the rabbit was shaved and a vertical incision was made approximately 5 cm in length along the thigh. The femoral vein and artery were exposed, isolated and then cannulated with a PVC catheter (17 G) for the infusion of drugs and compounds. Cannulation was repeated for the femoral artery, inserting the catheter to a depth of 10 cm to ensure that the catheter reached the abdominal aorta. This arterial catheter was linked to a Gould system to record blood pressure. Samples for blood gas analysis were also taken via the arterial catheter. Systolic and diastolic pressures were measured, and the mean arterial pressure calculated using the formula (diastolic×2+systolic)÷3. Heart rate was measured via the pulse oxymeter and Po-ne-mah data acquisition software system (Ponemah Physiology Platform, Gould Instrument Systems, Inc.).
A ventral midline incision was made into the abdominal cavity. The incision was about 5 cm in length just above the pubis. The fat and muscle was bluntly dissected away to reveal the hypogastric nerve which runs down the body cavity. It was essential to keep close to the side curve of the pubis wall in order to avoid damaging the femoral vein and artery which lie above the pubis. The sciatic and pelvic nerves lie deeper and were located after further dissection on the dorsal side of the rabbit. Once the sciatic nerve is identified, the pelvic nerve was easily located. The term pelvic nerve is loosely applied; anatomy books on the subject fail to identify the nerves in sufficient detail. However, stimulation of the nerve causes an increase in vaginal and clitoral blood flow in females and in intracavernosal pressure and cavernosal blood flow in males, and innervation of the pelvic region. […]

[3] = test system: conscious rats; assay: conscious rat models of copulatory behaviour; settings: in vivo
Procedure: All studies of sexual behaviour must be performed on adult rats (˜12 weeks of age/200 g weight). Sexual behaviour tests are performed under red light during the dark phase of the light/dark cycle starting at 2 h after lights off and videotaped for further analysis (observer presence can unfavourably alter sexual behaviour).
Males (N=8-10) are placed in a clear aquarium (or home cage) for at least 15 min acclimation period. An estrous female is introduced into the mating arena. The following information is recorded during the 45 min test: latency to begin mounting behaviour, latency to first intromission, latency to first ejaculation (calculated from first intromission), number of intromissions to ejaculation, number of mounts until ejaculation, and the number of ejaculations during the test period. Males are observed during a single 45 min test with an estrous WT female.
The rats are presented with a receptive female at […], i.e. every third day (having 2 clear days between presentations), until completing at least 6 days of baseline determination. By then, vigorous behaviour should be expected. Rats that display sluggish copulatory behaviour are used as a model of HSDD.
For all the sexual behaviour tests, the males are placed in an observation arena (50-60 cm diameter for rats). 3 to 4 minutes after placing the male in the arena, a receptive female (ovariectomised, bearing a 7 mm silastic implant of oestradiol benzoate gives the best results without complications) is introduced to the arena and the following parameters noted:
Mount Latency: time (in seconds) taken between introduction of female and first mount. A maximum time of 15 minutes (900 seconds) is allowed, and the test terminated if no mounts are recorded within that time. Mount latency is related to sexual drive/desire.
Intromission Latency: time (in seconds) taken between introduction of female and first intromission. A maximum time of 15 minutes (900 seconds) is allowed, and the test terminated if no intromissions are recorded within that time. Intromission latency is related to sexual drive/desire.
Copulatory effectsiveness:—no of intromissions/(no of mounts+intromissions). This acts as a measure of erectile function.
The test, in the rat, is carried out in a circular arena of 90 cm diameter surrounded by a 30 cm high wall (these dimensions would need to be adapted for mice). Two small cages with wire-mesh front (15×15 cm) are fixed into the wall such that the front of the cage is “flush” with the wall and the 2 cages are opposite each other. […] The difference in the percentage of time spent investigating male minus female is calculated, out of the total time spent investigating stimuli animals. […] Female rats would then be used intact and tested in late proestrous, as determined by vaginal smears. […]

**Q.** With CCCN1CCO[C@H](c2cccc(O)c2)C1.Cl [Example 8, R-(−)-3-(4-Propylmorpholin-2-yl)phenol hydrochloride] as the molecule, how does the “erections/10 minutes in the telemetry rat” value ([1]; 10 μg/kg s.c.) read?
**A.** 2.25±0.25 erections/10 minutes

**Q.** And the “free plasma concentration at which prosexual effects were observed” value ([1]; rat telemetry model, FIG. 1)?
**A.** circa 1 nM

**Q.** What about the “penile intracavernosal pressure and cavernosal blood flow in male rabbits” value [2] of the same molecule?
**A.** beneficially enhanced

**Q.** And the “vaginal and clitoral blood flow in female rabbits” value [2]?
**A.** beneficially enhanced

**Q.** And the “copulatory behaviour and copulatory effectiveness in male rats” value [3]?
**A.** beneficially enhances

**Q.** And the “mount latency and intromission latency in sluggish males (model of HSDD)” value [3]?
**A.** reduces

**Q.** And the “proceptive and receptive behaviours in female rats” value [3]?
**A.** beneficially enhances

**Q.** What about the “sexual desire in oestrogen primed ovarectomised animals (model of HSDD)” value [3] of the same molecule?
**A.** restores
